Experimental data taken from paper PMC8161026, “Synthesis and Anticancer Activity Evaluation of 5-[2-Chloro-3-(4-nitrophenyl)-2-propenylidene]-4-thiazolidinones” (Molecules, 2021).

Legend:
OVCAR-4 = assay: NCI DTP 60 cell line screen, SRB
Prostate Cancer subpanel = assay: cells
Method: (§1) At the first stage of biological activity study, the antitumor activity screening of the selected compounds 2b, 2c, 2f, 2h, and 2j was performed according to the NCI DTP (USA) standard protocol at the concentrations ranging from 10^−4 to 10^−8 M toward 60 tumor cell lines. The percentage of growth was evaluated spectrophotometrically versus controls not treated with test agents after 48 h exposure and using SRB protein assay to estimate cell viability or growth. Dose–response parameters were calculated for each cell line: GI50—molar concentration of the compound that inhibits 50% net cell growth; TGI—molar concentration of the compound leading to the total inhibition; and LC50—molar concentration of the compound leading to 50% net cell death. Furthermore, mean graph midpoints (MG_MID) were calculated for each of the parameters, giving an average activity parameter over all cell lines for the tested compound. For the MG_MID calculation, insensitive cell lines were included with the highest concentration tested.
(§2) The selectivity index (SI) obtained by dividing the full panel MG-MID (mM) of the tested compound by their individual subpanel MG-MID (mM) was considered as a measure of selectivity of anticancer activity (Table 3).
(§3) Primary anticancer assay was performed on a panel of approximately sixty human tumor cell lines derived from nine neoplastic diseases, in accordance with the protocol of the Drug Evaluation Branch, National Cancer Institute, Bethesda. Tested compounds were added to the culture at a single concentration (10^−5 M) and the cultures were incubated for 48 h. End point determinations were made with a protein binding dye, sulforhodamine B (SRB). […] The percentage growth was evaluated spectrophotometrically versus controls not treated with test agents.
(§4) Dose–response parameters (GI50, TGI, LC50) were calculated for each compound. […] The drug concentration resulting in total growth inhibition (TGI) was calculated from Ti = Tz. The LC50 (concentration of drug resulting in a 50% reduction in the measured protein at the end of the drug treatment as compared to that at the beginning) indicating a net loss of cells following treatment was calculated from [(Ti − Tz)/Tz] × 100 = −50 (2). Values were calculated for each of these parameters if the level of activity was reached; however, if the effect was not reached or was excessive, the value for that parameter was expressed as more or less than the maximum or minimum concentration tested.

Melanoma subpanel = assay: cells
Method: as §1, §2, §3, §4

Leukemia subpanel = assay: cells
Method: as §1, §2, §3, §4

Ovarian Cancer subpanel = assay: cells
Method: as §1, §2, §3, §4

CNS Cancer subpanel = assay: cells
Method: as §1, §2, §3, §4

Colon Cancer subpanel = assay: cells
Method: as §1, §2, §3, §4

Breast Cancer subpanel = assay: cells
Method: as §1, §2, §3, §4

[1] = test system: Non-Small Cell Lung Cancer subpanel; assay: cells
Method: as §1, §2, §3, §4

Renal Cancer subpanel = assay: cells
Method: as §1, §2, §3, §4

UACC-62 = assay: NCI DTP 60 cell line screen, SRB
HCT-116 = HCT-116 (Colon Cancer), 48 h, SRB
SK-OV-3 = assay: NCI DTP 60 cell line screen, SRB
NCI-H23 = assay: cells; settings: Homo sapiens, NCI-H23, 48 h
DU-145 = DU-145 (Prostate Cancer), 48 h, SRB
K-562 = assay: cells; settings: Homo sapiens, K562, 48 h
[2] = Homo sapiens, read-out: MG_MID, GI50
[3] = Homo sapiens, read-out: MG_MID, LC50
[4] = full panel MG_MID / Prostate Cancer subpanel MG_MID
[5] = full panel MG_MID / Melanoma subpanel MG_MID
[6] = full panel MG_MID / Leukemia subpanel MG_MID
[7] = full panel MG_MID / Ovarian Cancer subpanel MG_MID
[8] = full panel MG_MID / CNS Cancer subpanel MG_MID
[9] = full panel MG_MID / Colon Cancer subpanel MG_MID
[10] = full panel MG_MID / Breast Cancer subpanel MG_MID
[11] = full panel MG_MID / Non-Small Cell Lung Cancer subpanel MG_MID
[12] = full panel MG_MID / Renal Cancer subpanel MG_MID

## O=C1/C(=C/C(Cl)=C/c2ccc([N+](=O)[O-])cc2)SC(=S)N1c1ccc(O)cc1 [Compound 2f, 5-[(Z,2Z)-2-Chloro-3-(4-nitrophenyl)-2-propenylidene]-3-(4-hydroxyphenyl)-2-thioxo-4-thiazolidinone]
OVCAR-4; Homo sapiens, OVCAR-4, 48 h
  GI50: 2.63 µM
OVCAR-4; Homo sapiens, OVCAR-4, 48 h, read-out: LC50
  CC50: > 100 µM
OVCAR-4; OVCAR-4 (Ovarian Cancer), 48 h, SRB
  TGI: > 100 µM
Prostate Cancer subpanel; [2]
  GI50: 1.48 µM
Prostate Cancer subpanel; [3]
  CC50: 75.1 µM
Prostate Cancer subpanel; [4]
  SI (selectivity index), GI50: 1.89
  SI (selectivity index), LC50: 1.08
  SI (selectivity index), TGI: 0.71
Melanoma subpanel; [2]
  GI50: 2.63 µM
Melanoma subpanel; [3]
  CC50: 52.3 µM
Melanoma subpanel; Melanoma panel mean
  MG_MID, TGI: 14.4 µM
Melanoma subpanel; [5]
  SI (selectivity index), GI50: 1.06
  SI (selectivity index), LC50: 1.54
  SI (selectivity index), TGI: 2.23
Leukemia subpanel; GI50 (normal blood lymphocyte)/GI50 (Leukemia Panel)
  TI (Therapeutic Index): >353.36
Leukemia subpanel; [2]
  GI50: 0.283 µM
Leukemia subpanel; [3]
  CC50: > 100 µM
Leukemia subpanel; Leukemia panel mean
  MG_MID, TGI: 41.0 µM
Leukemia subpanel; [6]
  SI (selectivity index), GI50: 9.89
  SI (selectivity index), LC50: <0.81
  SI (selectivity index), TGI: 0.78
Ovarian Cancer subpanel; [2]
  GI50: 3.32 µM
Ovarian Cancer subpanel; [3]
  CC50: > 100 µM
Ovarian Cancer subpanel; Ovarian Cancer panel mean
  MG_MID, TGI: 42.5 µM
Ovarian Cancer subpanel; [7]
  SI (selectivity index), GI50: 0.84
  SI (selectivity index), LC50: <0.81
  SI (selectivity index), TGI: 0.76
CNS Cancer subpanel; CNS Cancer panel mean
  MG_MID, TGI: 30.6 µM
CNS Cancer subpanel; [2]
  GI50: 6.72 µM
CNS Cancer subpanel; [3]
  CC50: 77.4 µM
CNS Cancer subpanel; [8]
  SI (selectivity index), GI50: 0.42
  SI (selectivity index), LC50: 1.04
  SI (selectivity index), TGI: 1.05
Colon Cancer subpanel; Colon Cancer panel mean
  MG_MID, TGI: 67.4 µM
Colon Cancer subpanel; [2]
  GI50: 1.84 µM
Colon Cancer subpanel; [3]
  CC50: 84.5 µM
Colon Cancer subpanel; [9]
  SI (selectivity index), GI50: 1.52
  SI (selectivity index), LC50: 0.96
  SI (selectivity index), TGI: 0.48
Breast Cancer subpanel; Breast Cancer panel mean
  MG_MID, TGI: 11.6 µM
Breast Cancer subpanel; [2]
  GI50: 1.89 µM
Breast Cancer subpanel; [3]
  CC50: 98.7 µM
Breast Cancer subpanel; [10]
  SI (selectivity index), GI50: 1.48
  SI (selectivity index), LC50: 0.82
  SI (selectivity index), TGI: 2.78
[1]; [2]
  GI50: 2.93 µM
[1]; [3]
  CC50: 74 µM
[1]; Non-Small Cell Lung Cancer panel mean
  MG_MID, TGI: 26.6 µM
[1]; [11]
  SI (selectivity index), GI50: 0.96
  SI (selectivity index), LC50: 1.09
  SI (selectivity index), TGI: 1.21
Renal Cancer subpanel; [2]
  GI50: 2.85 µM
Renal Cancer subpanel; [3]
  CC50: 69.1 µM
Renal Cancer subpanel; Renal Cancer panel mean
  MG_MID, TGI: 24.1 µM
Renal Cancer subpanel; [12]
  SI (selectivity index), GI50: 0.98
  SI (selectivity index), LC50: 1.17
  SI (selectivity index), TGI: 1.34
UACC-62; Homo sapiens, UACC-62, 48 h
  GI50: 1.69 µM
UACC-62; Homo sapiens, UACC-62, 48 h, read-out: LC50
  CC50: 8.78 µM
UACC-62; UACC-62 (Melanoma), 48 h, SRB
  TGI: 3.85 µM
HCT-116
  TGI: 2.96 µM
SK-OV-3; Homo sapiens, SK-OV-3, 48 h
  GI50: 10.2 µM
SK-OV-3; Homo sapiens, SK-OV-3, 48 h, read-out: LC50
  CC50: > 100 µM
SK-OV-3; SK-OV-3 (Ovarian Cancer), 48 h, SRB
  TGI: 41.5 µM
NCI-H23
  GI50: 1.48 µM
NCI-H23; read-out: LC50
  CC50: 6.52 µM
DU-145
  TGI: 5.81 µM
K-562
  GI50: 0.521 µM
K-562; read-out: LC50
  CC50: > 100 µM
